Test results: the NIST ThermoML archive (doi:10.1021/je0499317)
Numbers after ± are expanded uncertainties.

Assay: excess molar enthalpy (molar enthalpy of mixing); xn = mol fraction of the nth substance listed
Details: 298.15 K, 101.33 kPa, Liquid

CCCCCCCCCC#N [1-decanenitrile] + CSCS(C)=O
Details | excess molar enthalpy [kcal/mol]
x2 = 0.02311 | 0.0228 ± 0.000717
x2 = 0.02808 | 0.029 ± 0.000813
x2 = 0.05736 | 0.0595 ± 0.00129
x2 = 0.07887 | 0.0808 ± 0.00163
x2 = 0.1059 | 0.108 ± 0.00203
x2 = 0.1267 | 0.128 ± 0.00234
x2 = 0.1515 | 0.149 ± 0.00263
x2 = 0.186 | 0.176 ± 0.00311
x2 = 0.2278 | 0.204 ± 0.00359
x2 = 0.2893 | 0.232 ± 0.00406
x2 = 0.3382 | 0.251 ± 0.0043
x2 = 0.3657 | 0.259 ± 0.0043
x2 = 0.4935 | 0.272 ± 0.00454
x2 = 0.5572 | 0.269 ± 0.00454
x2 = 0.6575 | 0.251 ± 0.0043
x2 = 0.7014 | 0.239 ± 0.00406
x2 = 0.7482 | 0.22 ± 0.00382
x2 = 0.7873 | 0.201 ± 0.00359
x2 = 0.8609 | 0.158 ± 0.00287
x2 = 0.9468 | 0.0728 ± 0.00151
x2 = 0.976 | 0.0352 ± 0.000908
x2 = 0.988 | 0.0193 ± 0.000669

CCCCCCCCCC#N [1-decanenitrile] + C[S+](C)[O-]
Details | excess molar enthalpy [kcal/mol]
x2 = 0.03778 | 0.0338 ± 0.000884
x2 = 0.04533 | 0.0418 ± 0.00103
x2 = 0.07244 | 0.0646 ± 0.00136
x2 = 0.08356 | 0.0746 ± 0.00153
x2 = 0.1458 | 0.132 ± 0.00239
x2 = 0.1516 | 0.137 ± 0.00239
x2 = 0.1578 | 0.141 ± 0.00263
x2 = 0.2138 | 0.183 ± 0.00311
x2 = 0.232 | 0.195 ± 0.00335
x2 = 0.3492 | 0.256 ± 0.0043
x2 = 0.4404 | 0.285 ± 0.00478
x2 = 0.52 | 0.299 ± 0.00502
x2 = 0.5471 | 0.302 ± 0.00502
x2 = 0.5564 | 0.304 ± 0.00502
x2 = 0.6253 | 0.301 ± 0.00502
x2 = 0.7275 | 0.282 ± 0.00478
x2 = 0.7979 | 0.251 ± 0.0043
x2 = 0.9212 | 0.139 ± 0.00263
x2 = 0.962 | 0.0765 ± 0.00155
x2 = 0.9868 | 0.0295 ± 0.000837

CCCCCCCCCCC#N [1-decylcyanide] + CSCS(C)=O
Details | excess molar enthalpy [kcal/mol]
x2 = 0.02536 | 0.029 ± 0.000813
x2 = 0.04055 | 0.0463 ± 0.0011
x2 = 0.04193 | 0.0496 ± 0.00115
x2 = 0.07582 | 0.0856 ± 0.0017
x2 = 0.07724 | 0.0867 ± 0.00172
x2 = 0.1217 | 0.127 ± 0.00234
x2 = 0.1402 | 0.142 ± 0.00263
x2 = 0.1596 | 0.159 ± 0.00287
x2 = 0.1889 | 0.181 ± 0.00311
x2 = 0.2628 | 0.223 ± 0.00382
x2 = 0.2767 | 0.231 ± 0.00406
x2 = 0.3234 | 0.252 ± 0.0043
x2 = 0.4218 | 0.278 ± 0.00478
x2 = 0.5052 | 0.286 ± 0.00478
x2 = 0.77 | 0.237 ± 0.00406
x2 = 0.8316 | 0.202 ± 0.00359
x2 = 0.8694 | 0.17 ± 0.00311
x2 = 0.9043 | 0.138 ± 0.00263
x2 = 0.9095 | 0.132 ± 0.00239
x2 = 0.9464 | 0.0864 ± 0.00172
x2 = 0.9933 | 0.0131 ± 0.000574

CCCCCCCCCCC#N [1-decylcyanide] + C[S+](C)[O-]
Details | excess molar enthalpy [kcal/mol]
x2 = 0.02797 | 0.0287 ± 0.000813
x2 = 0.05445 | 0.0548 ± 0.00122
x2 = 0.09234 | 0.0936 ± 0.00182
x2 = 0.1207 | 0.119 ± 0.00222
x2 = 0.1811 | 0.175 ± 0.00311
x2 = 0.1853 | 0.178 ± 0.00311
x2 = 0.2855 | 0.249 ± 0.0043
x2 = 0.3924 | 0.296 ± 0.00502
x2 = 0.5139 | 0.322 ± 0.00526
x2 = 0.5302 | 0.322 ± 0.00526
x2 = 0.6423 | 0.322 ± 0.00526
x2 = 0.7161 | 0.308 ± 0.00502
x2 = 0.8292 | 0.254 ± 0.0043
x2 = 0.8917 | 0.195 ± 0.00335
x2 = 0.9298 | 0.145 ± 0.00263
x2 = 0.9772 | 0.0547 ± 0.00122
x2 = 0.98 | 0.0491 ± 0.00112
x2 = 0.9927 | 0.0191 ± 0.000669
